Converted amounts (≈) assume the structure as drawn. Like-named read-outs stand apart in the source and are kept apart here.
What was measured:
[1] = system: HIV-1; assay: in vitro anti-HIV-1 assay: inhibition of the virus-induced cytopathic effect in MT-4 cells (MTT); format: cell-based; conditions: for S. I. (CD50 /ED50): Selectivity index = (CD50 /ED50)
Procedure: The in vitro anti-HIV-1 assays were based on the inhibition of the virus-induced cytopathic effect in MT-4 cells as described in J. Med. Chem, 34, 349 (1991).
First, MT-4 cells were suspended in a culture medium at a concentration of 1×10^4 cells/ml and infected with 500 TCID50 (50% cell culture infective dose)/well of HIV-1. Immediately after the virus infection, 100 μl of the cell suspension was brought into each well of a flat-bottomed microtiter tray containing various concentrations of the test compounds(1) to (21). After incubating for 4 or 5 days at 37° C., the number of viable cells was determined by the 3-(4,5-dimethylthiazol-2-yl)-2,5-diphenyltetrazolium bromide (MTT) method, as disclosed in J. Virol. Methods, 20, 309 (1988).

[2] = cytotoxicity: viability of mock-infected host (MT-4) cells (MTT); format: cell-based; conditions: human, Cytotoxic concentration that causes death of MT4 cells by 50%, MTT method, read-out: CD50 (the source's name)
Procedure: The cytotoxicity of the compounds of the present invention was assessed in parallel with their antiviral activity. It was based on the viability of mock-infected host cells as determined by the MTT methods (see J. Virol. Methods, 20, 309 (1988)). AZT was employed as a comparative compound.

[3] = Human immunodeficiency virus 1, MT4, read-out: ED50
[4] = Human immunodeficiency virus 1, MT4, Effective concentration for the inhibition of the proliferation of HIV by 50%, HIV-1-infected MT-4 cells, 4 or 5 days at 37° C., MTT method, read-out: ED50 (the source's name)

Compound: Cc1cn([C@H]2C[C@H](N=[N+]=[N-])[C@@H](CO)O2)c(=O)[nH]c1=O [AZT, 3'-azido-3'-deoxythymidine, reference compound]
- EC50 [1, 3]: 0.00116 µg/mL (≈ 0.00434 µM)
- CC50 [2]: 0.558 µg/mL (≈ 2.09 µM)

Compound: CCOCn1c(Oc2cc(C)cc(C)c2)c(CC)c(=O)[nH]c1=O [Compound 1, 1-ethoxymethyl-5-ethyl-6-(3',5'-dimethylphenoxy)-2,4-pyrimidinedione]
- EC50 [1, 4]: < 0.001 µg/mL
- S. I. (CD50 /ED50) [1]: > 84,680
- CC50 [2]: 84.7 µg/mL (≈ 266 µM)

Compound: CCOCn1c(Oc2cc(C)cc(C)c2)c(C(C)C)c(=O)[nH]c1=O [Compound 2, 1-ethoxymethyl-5-isopropyl-6-(3',5'-dimethylphenoxy)-2,4-pyrimidinedione]
- EC50 [1, 4]: < 0.00256 µg/mL
- S. I. (CD50 /ED50) [1]: > 8,425
- CC50 [2]: 21.6 µg/mL (≈ 64.9 µM)

Compound: CCOCn1c(Oc2ccccc2)c(CC)c(=O)[nH]c1=O [Compound 3, 1-ethoxymethyl-5-ethyl-6-phenoxy-2,4-pyrimidinedione]
- EC50 [1, 4]: < 0.001 µg/mL
- S. I. (CD50 /ED50) [1]: > 16,630
- CC50 [2]: 16.6 µg/mL (≈ 57.3 µM)

Compound: CCOCn1c(Oc2ccccc2)c(C(C)C)c(=O)[nH]c1=O [Compound 4, 1-ethoxymethyl-5-isopropyl-6-phenoxy-2,4-pyrimidinedione]
- EC50 [1, 3]: 0.018 µg/mL (≈ 0.0591 µM)
- S. I. (CD50 /ED50) [1]: > 5,111
- CC50 [2]: 92 µg/mL (≈ 302 µM)

Compound: CCc1c(Oc2cc(C)cc(C)c2)n(COCc2ccccc2)c(=O)[nH]c1=O [Compound 5, 1-benzyloxymethyl-5-ethyl-6-(3',5'-dimethylphenoxy)-2,4-pyrimidinedione]
- EC50 [1, 4]: < 0.00256 µg/mL
- S. I. (CD50 /ED50) [1]: > 11,585
- CC50 [2]: 29.7 µg/mL (≈ 78 µM)

Compound: Cc1cc(C)cc(Oc2c(C(C)C)c(=O)[nH]c(=O)n2COCc2ccccc2)c1 [Compound 6, 1-benzyloxymethyl-5-isopropyl-6-(3',5'-dimethylphenoxy)-2,4-pyrimidinedione]
- EC50 [1, 4]: < 0.00256 µg/mL
- S. I. (CD50 /ED50) [1]: > 5,246
- CC50 [2]: 13.4 µg/mL (≈ 34 µM)

Compound: CC(C)c1c(Oc2ccccc2)n(COCc2ccccc2)c(=O)[nH]c1=O [Compound 7, 1-benzyloxymethyl-5-isopropyl-6-phenoxy-2,4-pyrimidinedione]
- EC50 [1, 4]: < 0.001 µg/mL
- S. I. (CD50 /ED50) [1]: > 10,210
- CC50 [2]: 10.2 µg/mL (≈ 27.9 µM)

Compound: CCc1c(Oc2cc(C)cc(C)c2)n(COCCOC(C)=O)c(=O)[nH]c1=O [Compound 8, 1-(2'-acetoxyethoxymethyl)-5-ethyl-6-(3',5'-dimethylphenoxy)-2,4-pyrimidinedione]
- EC50 [1, 4]: < 0.00256 µg/mL
- S. I. (CD50 /ED50) [1]: > 3,718
- CC50 [2]: 9.52 µg/mL (≈ 25.3 µM)

Compound: CCc1c(Oc2cc(C)cc(C)c2)n(COCCO)c(=O)[nH]c1=O [Compound 9]
- EC50 [1, 4]: 0.992 µg/mL (≈ 2.97 µM)
- CC50 [2]: 35.1 µg/mL (≈ 105 µM)

Compound: CC(=O)OCCOCn1c(Oc2cc(C)cc(C)c2)c(C(C)C)c(=O)[nH]c1=O [Compound 10, 1-(2'-acetoxyethoxymethyl)-5-isopropyl-6-(3',5'-dimethylphenoxy)-2,4-pyrimidinedione]
- EC50 [1, 4]: 0.00351 µg/mL (≈ 0.00899 µM)
- CC50 [2]: 119 µg/mL (≈ 304 µM)

Compound: Cc1cc(C)cc(Oc2c(C(C)C)c(=O)[nH]c(=O)n2COCCO)c1 [Compound 11, 1-(2'-hydroxyethoxymethyl)-5-isopropyl-6-(3',5'-dimethylphenoxy)-2,4-pyrimidinedione]
- EC50 [1, 4]: 0.0107 µg/mL (≈ 0.0308 µM)
- CC50 [2]: 129 µg/mL (≈ 370 µM)

Compound: COCCOCn1c(Oc2cc(C)cc(C)c2)c(C(C)C)c(=O)[nH]c1=O [Compound 12, 1-(2'-methoxyethoxymethyl)-5-isopropyl-6-(3',5'-dimethylphenoxy)-2,4-pyrimidinedione]
- EC50 [1, 4]: 0.0106 µg/mL (≈ 0.0291 µM)
- CC50 [2]: 126 µg/mL (≈ 348 µM)

Compound: CCOCn1c(C(=O)c2cc(C)cc(C)c2)c(CC)c(=O)[nH]c1=O [Compound 13, 1-ethoxymethyl-5-ethyl-6-(3',5'-dimethylbenzoyl)-2,4-pyrimidinedione]
- EC50 [1, 4]: < 0.001 µg/mL
- S. I. (CD50 /ED50) [1]: > 5,860
- CC50 [2]: 5.86 µg/mL (≈ 17.7 µM)

Compound: CCOCn1c(C(=O)c2cc(C)cc(C)c2)c(C(C)C)c(=O)[nH]c1=O [Compound 14, 1-ethoxymethyl-5-isopropyl-6-(3',5'-dimethylbenzoyl)-2,4-pyrimidinedione]
- EC50 [1, 4]: < 0.001 µg/mL
- S. I. (CD50 /ED50) [1]: > 15,330
- CC50 [2]: 15.3 µg/mL (≈ 44.5 µM)

Compound: CCOCn1c(C(=O)c2ccccc2)c(CC)c(=O)[nH]c1=O [Compound 15, 1-ethoxymethyl-5-ethyl-6-benzoyl-2,4-pyrimidinedione]
- EC50 [1, 4]: 0.043 µg/mL (≈ 0.142 µM)
- CC50 [2]: 103 µg/mL (≈ 342 µM)

Compound: CCOCn1c(C(=O)c2ccccc2)c(C(C)C)c(=O)[nH]c1=O [Compound 16, 1-ethoxymethyl-5-isopropyl-6-benzoyl-2,4-pyrimidinedione]
- EC50 [1, 4]: 0.0116 µg/mL (≈ 0.0367 µM)
- CC50 [2]: 88.7 µg/mL (≈ 280 µM)

Compound: CCc1c(C(=O)c2cc(C)cc(C)c2)n(COCc2ccccc2)c(=O)[nH]c1=O [Compound 17, 1-benzyloxymethyl-5-ethyl-6-(3',5'-dimethylbenzoyl)-2,4-pyrimidinedione]
- EC50 [1, 3]: < 0.001 µg/mL
- S. I. (CD50 /ED50) [1]: > 10,550
- CC50 [2]: 1.05 µg/mL (≈ 2.69 µM)

Compound: Cc1cc(C)cc(C(=O)c2c(C(C)C)c(=O)[nH]c(=O)n2COCc2ccccc2)c1 [Compound 18, 1-benzyloxymethyl-5-isopropyl-6-(3',5 '-dimethylbenzoyl)-2,4-pyrimidinedione]
- EC50 [1, 4]: < 0.001 µg/mL
- S. I. (CD50 /ED50) [1]: > 11,920
- CC50 [2]: 11.9 µg/mL (≈ 29.3 µM)

Compound: CC(C)c1c(C(=O)c2ccccc2)n(COCc2ccccc2)c(=O)[nH]c1=O [Compound 19, 1-benzyloxymethyl-5-isopropyl-6-benzoyl-2,4-pyrimidinedione]
- EC50 [1, 3]: < 0.01 µg/mL
- S. I. (CD50 /ED50) [1]: > 15,450
- CC50 [2]: 15.4 µg/mL (≈ 40.8 µM)

Compound: Cc1cc(C)cc(C(=O)c2c(C(C)C)c(=O)[nH]c(=O)n2COCCO)c1 [Compound 20]
- EC50 [1, 4]: 0.00367 µg/mL (≈ 0.0102 µM)
- CC50 [2]: 51.7 µg/mL (≈ 143 µM)

Compound: COCCOCn1c(C(=O)c2cc(C)cc(C)c2)c(C(C)C)c(=O)[nH]c1=O [Compound 21, 1-(2'-methoxyethoxymethyl)-5-isopropyl-6-(3',5'-dimethylbenzoyl)-2,4-pyrimidinedione]
- EC50 [1, 4]: 0.0119 µg/mL (≈ 0.0318 µM)
- CC50 [2]: 121 µg/mL (≈ 324 µM)
